Test results: patent US10821127B2, “Composition for inhibiting myeloid-derived suppressor cells comprising decitabine or its pharmaceutically acceptable salt as active ingredient” (SNU R&DB Foundation, priority 2015, dated 2020)

What was measured:
MDSC = settings: preclinical model; gemcitabine: spleen of tumor-induced mice (Clin Cancer Res 2005; 11: 6713-6721); cited from earlier work
[1] = system: colon cancer cell line MC38 expressing a human CEA gene; format: in vivo, mouse; settings: every 2 days, total of 10 times
Method: (§1) 150 μl PBS including a colon cancer cell line MC38 1.5×10^6 expressing a human CEA gene was injected hypodermically to the right flank of a 7 to 8-week-old female B6 mouse to form a tumor. The mouse was bred in a Seoul National University laboratory under a temperature of 23.5±1° C. and a humidity of 50±5% in a light/dark cycle of 12 hours. All animal experiments followed the guideline of the Animal Ethics Committee of Seoul National University.
It was verified whether decitabine was usable as an anticancer chemotherapy through immune treatment based on a bone marrow-based specific drug effect. First, in order to verify an effect of the decitabine on the tumorigenic mice, the decitabine was administrated to the tumorigenic mice prepared in Example 1 and then changes in tumor size and survival rate were measured.
Particularly, in the tumorigenic mice prepared in Example 1, decitabine (DAC) at a concentration of 40 mg/ml purchased from Sigma Co., Ltd. was diluted with 100 μl PBS to be 0, 0.125, 0.25, 0.5, and 1 mg/kg per mouse and then administrated in the right abdominal cavity (every 2 days and a total of 10 times) for each concentration to verify the tumor size and the survival rate. The tumor size was calculated by the following Equation after measuring a width and a length of a tumor mass at an interval of 2 to 3 days from the time when 10 days elapsed after injecting tumor cells: Long length×short length×short length/2. In the survival rate, the number of surviving mice in each group was calculated by the following Equation: The number of surviving mice/a total number of mice×100

[2] = system: cells in the spleen and the bone marrow; assay: Number of cells in spleen and bone marrow of tumorigenic mice, trypan blue staining (Example 3); format: in vivo, mouse; settings: intraperitoneal, every 2 days, 10 times; for number of bone marrow cells: 0, 0.25, 0.5 mg/kg, FIG. 2 right
Method: as §1
It was well-known that gemcitabine suppressed myeloid-derived suppressor cells (MDSC) derived from the tumor (Clin Cancer Res 2005; 11(18) Sep. 15, 2005), and the gemcitabine has been used as an anticancer chemotherapeutic agent. Accordingly, whether the decitabine is usable as an anticancer chemotherapeutic agent like the gemcitabine was verified through the comparison with the gemcitabine. First, in order to verify effects of decitabine and gemcitabine on cells in the spleen and the bone marrow, the decitabine and the gemcitabine were administrated to the tumorigenic mice prepared in Example 1 and then the number of cells in the spleen and the bone marrow was measured.
(§2) Particularly, in the tumorigenic mice prepared in Example 1, decitabine (DAC) or gemcitabine (GEM) were diluted with 100 μl PBS to be 0, 0.25, 0.5 mg/kg per mouse, administrated in the right abdominal cavity (every 2 days and a total of 10 times) for each concentration, and then sacrificed to extract the spleen and the bone marrow. Thereafter, spleen cells and bone marrow cells were extracted and stained by a trypan blue staining method and then the number of cells was measured by using a hematocytometer.

[3] = system: immune cells in the spleen; assay: Number of immune cells in spleen of tumorigenic mice, flow cytometer (Example 4-1); format: in vivo, mouse; settings: for T cell populations CD3+, CD3+CD4+, CD3+CD8+ in the spleen: 0, 0.25, 0.5 mg/kg intraperitoneal, FIG. 3
Method: as §2
In order to verify effects of decitabine and gemcitabine on immune cells in the spleen, the decitabine and the gemcitabine were administrated to the tumorigenic mice prepared in Example 1 and then the numbers of cells in a T cell population, a B cell population, an NK cell population, an NKT cell population, and a myeloid-based cell population in the spleen were measured.
Particularly, by the method disclosed in Example 3, decitabine (DAC) or gemcitabine (GEM) was administrated and then the spleen was extracted. Thereafter, each immune cell population were stained with fluorescence-bound antibodies purchased by BD Corporation and then the number of cells was measured through a flow cytometer.
In order to measure the number of cells in the T cell population, an anti-CD3 antibody, an anti-CD4 antibody, and an anti-CD8 antibody were used (FIG. 3).
In order to the number of cells in the B cell population, an anti-B220 antibody was used. Further, in order to measure the number of cells in the NK and NKT cell populations, anti-CD3 and anti-NK1.1 antibodies were used (FIG. 4).
In order to measure the number of cells in the myeloid-based cell population, an anti-CD11b antibody and an anti-CD11c antibody were used (FIG. 5).

[4] = system: granulocytic, monokaryotic and MDSC cell populations in the spleen; assay: Number of cells of subpopulations of myeloid-based cell population in spleen of tumorigenic mice (Example 4-2); format: in vivo, mouse
Method: as §2
In order to verify an effect of decitabine or gemcitabine on cells of a subpopulation of myeloid-based cell populations in the spleen and the bone marrow, decitabine and gemcitabine were administrated to the tumorigenic mice prepared in Example 1 and then the numbers of cells in a granulocytic cell population, a monokaryotic cell population, and an MDSC cell population were measured.
Particularly, by the method disclosed in Example 3, decitabine (DAC) or gemcitabine (GEM) was administrated and then the spleen was extracted. Thereafter, monokaryotic and granulocytic cell populations were stained with fluorescence-bound antibodies purchased by BD Corporation and then the numbers of cells were measured through a flow cytometer.
In order to measure the numbers of cell in the monokaryotic cell population and the granulocytic cell population, anti-CD11b, anti-F480 and anti-Gr1 antibodies were used (FIG. 6).
In order to measure the number of cells of the subpopulation of the MDSC cell population, anti-CD11b, anti-Ly6c and anti-Ly6g antibodies were used (FIG. 7).

[5] = system: immune cells in the bone marrow; assay: Number of immune cells in bone marrow of tumorigenic mice, flow cytometer (Example 5-1); format: in vivo, mouse; settings: for number of T cell populations CD3+ and CD3+CD4+ in the bone marrow: FIG. 8
Method: as §2
In order to verify effects of decitabine and gemcitabine on immune cells in the bone marrow, the decitabine and the gemcitabine were administrated to the tumorigenic mice prepared in Example 1 and then the numbers of cells in a T cell population, a B cell population, an NK cell population, an NKT cell population, and a myeloid-based cell population in the bone marrow were measured.
Particularly, by the method disclosed in Example 3, decitabine (DAC) or gemcitabine (GEM) was administrated and then the bone marrow was extracted. Thereafter, the bone marrow was stained by using the antibodies disclosed in Example 4-1, and then the number of cells was measured through a flow cytometer (FIGS. 8 to 10).

[6] = system: granulocytic, monokaryotic and MDSC cell populations in the bone marrow; assay: Number of cells of subpopulations of myeloid-based cell population in bone marrow of tumorigenic mice (Example 5-2); format: in vivo, mouse
Method: as §2
In order to verify an effect of decitabine or gemcitabine on cells of a subpopulation of myeloid-based cell populations in the bone marrow, decitabine and gemcitabine were administrated to the tumorigenic mice prepared in Example 1 and then the numbers of cells in a granulocytic cell population, a monokaryotic cell population, and an MDSC cell population in the bone marrow were measured.
Particularly, by the method disclosed in Example 3, decitabine (DAC) or gemcitabine (GEM) was administrated and then the bone marrow was extracted. Thereafter, the bone marrow was stained by using the antibodies disclosed in Example 4-2, and then the number of cells was measured through a flow cytometer (FIGS. 11 to 12).

MDSC cell population = assay: In vitro apoptosis of MDSC cell population, bone marrow stem cells co-cultured with MC38 in Transwell (Example 6); format: cell-based, mouse; settings: 50 nM, as compared with the gemcitabine; FIG. 13
Method: In order to verify effects of decitabine and gemcitabine on apoptosis of an MDSC cell population, the decitabine or the gemcitabine was treated in vitro and then a change in the number of cells in the MDSC cell population was measured.
Particularly, from the tumorigenic mice prepared in Example 1, the bone marrow was extracted and then bone marrow stem cells were isolated. Thereafter, while the bone marrow stem cells in a bottom well and cells of a colon cancer cell line MC38 expressing a CEA gene were co-cultured in an insert well […] with a DMEM culture medium by using a Transwell system, the decitabine and the gemcitabine of concentrations of 50 nM were treated at a third day after cell culture, respectively, and then cells after two days were collected. Thereafter, in order to measure the numbers of cells in the myeloid-based cell population and the MDSC cell population, the cell populations were stained by using an anti-CD11b antibody and an anti-GR1 antibody and then the number of cells was measured through a flow cytometer.

IL-6 = assay: Cytokine expression in tumor cells after decitabine treatment, PCR (Example 7): IL-6; format: cell-based; settings: MC38 expressing the CEA gene, 0, 10, 100 nM, 48 hours; FIG. 14
Method: (§3) In order to verify a possibility of a result that the MDSC creation itself in the bone marrow is decreased by the tumor cells, in addition to a direct apoptotic effect of the MDSC by the reduction of the MDSC cell population caused by the decitabine, an expression change in cytokines inducing the creation of the MDSC cell population after treating the decitabine in the tumor cells was measured.
(§4) Particularly, the decitabine was treated in each well for each concentration 0, 10, 100 nM in a colon cancer cell line MC38 expressing the CEA gene which was cultured for 1 week in a 6-well plate and cultured for 48 hours, and then the cells were collected. Thereafter, from the collected cells, total RNA was isolated by using a trizol reagent (Invitrogen, Carlsbad, Calif.) and then the isolated RNA 5 μg reacted with reverse transcriptase for 1 hour at 42° C. to synthesize a cDNA and 5 minutes at 95° C. to inactivate the enzyme. Polymerase chain reaction (PCR) was performed by using a primer in the following Table 1 by using the cDNA as a template of PCR and a PCR product was electrophoresed with an agarose gel and visualized to confirm expression of IL-6, IFN-γ and VEGF genes.

IFN-γ = assay: Cytokine expression in tumor cells after decitabine treatment, PCR (Example 7): IFN-γ; format: cell-based; settings: MC38 expressing the CEA gene, 0, 10, 100 nM, 48 hours; FIG. 14
Method: as §3, §4

VEGF = assay: Cytokine expression in tumor cells after decitabine treatment, PCR (Example 7): VEGF; format: cell-based; settings: MC38 expressing the CEA gene, 0, 10, 100 nM, 48 hours; FIG. 14
Method: as §3, §4

[7] = system: myeloid-derived suppressor cells; assay: Dose with MDSC suppression effect in tumorigenic mice; format: in vivo
Method: In the preferred embodiment of the present invention, the inventors verified that in order to verify whether the decitabine suppresses the myeloid-derived suppressor cells produced from the bone marrow by the tumor, tumorigenic mice were prepared and the decitabine was administrated for each concentration, and as a result, an effect of suppressing the myeloid-derived suppressor cells by the decitabine is excellent in a dose range of 0.5 to 1 mg/kg.
Accordingly, through Examples 1 to 8, it was verified that the decitabine had excellent effects of suppressing the MDSC and inducing the apoptosis as compared with the gemcitabine and may enhance the effect of a cancer immunotherapy. Further, when the decitabine has an excellent MDSC suppression effect at 0.5 mg/kg and a fifth part to a tenth part of an effective dose (5.25 mg/kg/once, 34 mg/kg/cycle) applied to an actual patient is compared with an effective dose of 120 mg/kg at which the gemcitabine has the MDSC suppression effect, it was verified that the effective dose is a low concentration of a hundredth part or more.

[8] = system: myeloid-derived suppressor cells; settings: gemcitabine comparison dose; cited from earlier work
[9] = 0, 0.125, 0.25, 0.5, 1 mg/kg, right abdominal cavity, FIG. 1
[10] = at a lower concentration than gemcitabine, FIG. 4
[11] = similarly to the gemcitabine, FIG. 6
[12] = compared with the gemcitabine, FIG. 11

O=c1[nH]cc(F)c(=O)[nH]1 [5-FU, 5-fluorouracil]
number of MDSC (MDSC): significantly reduces

Nc1ncn([C@H]2C[C@H](O)[C@@H](CO)O2)c(=O)n1 [decitabine, 5-aza-2′-deoxycytidine]
survival rate [1, 9]: no difference
tumor size [1, 9]: no difference
toxicity induction by repeated administration ([1]; up to 1 mg/kg): exclude a toxicity induction possibility
number of bone marrow cells [2]: not significantly exhibited
number of spleen cells ([2]; dose concentration 0.5 mg/kg, FIG. 2 left): significantly reduced
T cell populations CD3+, CD3+CD4+, CD3+CD8+ in the spleen [3]: slight
NKT cell population CD3+NK1.1+ in the spleen, significant change ([3]; FIG. 4): not induced
myeloid-based cell populations CD11b+ and CD11c+ in the spleen ([3]; as compared with the gemcitabine, FIG. 5): rapid reduction
B cell population B220+ in the spleen [3, 10]: reduction
NK cell population CD3-NK1.1+ in the spleen [3, 10]: reduction
granulocytic cell population CD11b+F480-Gr1hi in the spleen [4, 11]: rapid reduction
monokaryotic cell population CD11b+F480+Gr1- in the spleen [4, 11]: rapid reduction
subpopulations CD11b+Ly6c+Ly6g+, CD11b+Ly6chi of the MDSC cell population in the spleen ([4]; to the degree of similar to or higher than the gemcitabine, FIG. 7): rapid reduction
number of T cell populations CD3+ and CD3+CD4+ in the bone marrow [5]: increased
NK cell population CD3-NK1.1+ in the bone marrow, significant changes ([5]; FIG. 9): not induced
NKT cell population CD3+NK1.1+ in the bone marrow, significant changes ([5]; FIG. 9): not induced
B cell population B220+ in the bone marrow ([5]; as compared with the gemcitabine, FIG. 9): reduction
myeloid-based cell populations CD11b+ and CD11c+ in the bone marrow ([5]; as compared with the gemcitabine, FIG. 10): rapid reduction
granulocytic cell population CD11b+F480-Gr1hi in the bone marrow [6, 12]: more rapid reduction
monokaryotic cell population CD11b+F480+Gr1- in the bone marrow [6, 12]: more rapid reduction
subpopulations CD11b+Ly6c+Ly6g+ and CD11b+Ly6chi of the MDSC cell population in the bone marrow ([6]; to a much higher degree than the gemcitabine, FIG. 12): rapid reduction
number of cells in the MDSC cell population in vitro (MDSC cell population): rapid reduction
creation degree (expression) of IL-6 in the tumor (IL-6): reduced
creation degree (expression) of IFN-γ in the tumor (IFN-γ): reduced
creation degree (expression) of VEGF in the tumor (VEGF): reduced
dose with excellent MDSC suppression effect [7]: 0.5 mg/kg

Nc1ccn([C@@H]2O[C@H](CO)[C@@H](O)C2(F)F)c(=O)n1 [gemcitabine]
number of bone marrow cells [2]: increased in a concentration-dependent manner
T cell populations CD3+, CD3+CD4+, CD3+CD8+ in the spleen [3]: rapid reduction
number of T cell populations CD3+ and CD3+CD4+ in the bone marrow [5]: increased
effective dose with MDSC suppression effect [8]: 120 mg/kg
number of MDSC (MDSC): significantly reduces
